Test results: patent publication US20240383906A1, “5-SUBSTITUTED PYRIDINE-2(1H)-KETONE COMPOUND AND USE THEREOF” (JIANGSU KANION PHARMACEUTICAL CO., LTD., priority 2021, published 2024)

Assays:
[1] = system: WNT pathway STF reporter gene; experiment: Super-Top-Flash (STF) reporter gene inhibitory activity test; type: cell-based; conditions: HEK293 STF and L wnt3A cells 1:1, 24 hours, Bright-Glo
Procedure: HEK293 STF and L wnt3A cells were provided by Wuhan Heyan Biomedical Technology Co., Ltd., and Bright Glo was purchased from Promega.
• HEK293 STF and L wnt3A cells were seeded in a white 96-well plate at a ratio of 1:1, with 80 μL of cell suspension per well, each containing 20,000 HEK293 STF cells and 20,000 L wnt3A cells. The cell plate was placed in a carbon dioxide incubator for overnight culture.
The test compounds were 5-fold diluted with a multi-channel pipette to the 8th concentration, i.e., diluted from 400 μM to 5.12 nM, and duplicate experiment was set. 78 μL of culture medium was added to an intermediate plate, and then 2 μL of gradient diluted compound per well was transferred to the intermediate plate according to the corresponding position. After mixing well, the compound was transferred to the cell plate at 20 μL per well. The cell plate was placed in a carbon dioxide incubator and cultured for 24 hours.
100 μL of Promega Bright-Glo reagent was added to each well of the cell plate, and it was incubated at room temperature for 10 minutes to stabilize the luminescent signal. A multimode microplate reader was used for reading.
Using the raw data from the multimode microplate reader, the IC50 value could be obtained through curve fitting. Table 10 provides the data on the inhibitory activity of the compounds of the present disclosure on the Wnt signaling pathway.

Capan-2 cells = experiment: Capan-2 cell anti-proliferative activity test; type: cell-based; conditions: Homo sapiens, Capan-2, 120 h; 5 days, CellTiter-Glo
Procedure: Capan-2 cells were provided by Wuhan Heyan Biomedical Technology Co., Ltd., and CellTiter-Glo was purchased from Promega.
Capan-2 cells were seeded in a white 96-well plate, with 80 μL of cell suspension per well, each containing 5,000 Capan-2 cells. The cell plate was placed in a carbon dioxide incubator for overnight culture.
The test compounds were 3-fold diluted with a multi-channel pipette to the 9th concentration, i.e., diluted from 200 μM to 30 nM, and duplicate experiment was set. 78 μL of culture medium was added to an intermediate plate, and then 2 μL of gradient diluted compound per well was transferred to the intermediate plate according to the corresponding position. After mixing well, the compound was transferred to the cell plate at 20 μL per well. The cell plate was placed in a carbon dioxide incubator and cultured for 5 days. Another cell plate was prepared, and the signal value was read on the day of drug administration to serve as the maximum value (Max value in the equation below) for data analysis. 25 μL of cell viability chemiluminescence detection reagent was added to each well of this cell plate, and it was incubated at room temperature for 10 minutes to stabilize the luminescent signal. A multimode microplate reader was used for reading.
After the cell plate was cultured for 5 days, 25 μL of Promega CellTiter-Glo reagent was added to each well of the cell plate, and it was incubated at room temperature for 10 minutes to stabilize the luminescent signal. A multimode microplate reader was used for reading.
The IC50 value could be obtained through curve fitting, and the results of the inhibitory activity of the compounds of the present disclosure on the proliferation of Capan-2 cells are shown in Table 11.

[2] = system: HuPrime® gastric cancer GA3055 subcutaneous xenograft model; experiment: In vivo drug efficacy in HuPrime gastric cancer GA3055 subcutaneous xenograft model; parameters: species or system female BALB/C nude mice; conditions: BID
Excerpt: • GA3055 tumor-bearing mice were provided by Crown Bioscience (Taicang) Co., Ltd.
Tumor tissue was collected from tumor-bearing mice of the HuPrime® gastric cancer GA3055 xenograft model, and cut into tumor pieces with a diameter of 2 to 3 mm for subcutaneous inoculation in the right anterior scapular region of BALB/c nude mice. When the average tumor volume in the tumor-bearing mice reached approximately 150 mm^3, the mice were randomly grouped. The coefficient of variation (CV) of the tumor volume within each group was calculated using the formula CV=SD/MTV×100%, and should be less than 30%. Administration started on the day of grouping (the tumor volume was measured on the day of grouping). The day of grouping was defined as day 0.
Before the start of administration, all animals were weighed and the tumor volume was measured using a caliper. Given that the volume of the tumor could affect the effectiveness of the treatment, a random grouping design method was used. The mice were grouped based on the volume of their tumors to ensure similar tumor volumes across different groups. Grouping was done using StudyDirector™ (version 3.1.399.19, supplier: Studylog System, Inc., S. San Francisco, CA, USA).
The “Matched distribution” random grouping method was chosen for grouping, which could reflect the smallest intergroup differences at the tumor volume level. This algorithm matched the individual measurements of all selected animals with the average value of all selected animals. Firstly, those paired animals whose average values were close to the average value of all selected animals were chosen, and then they were allocated to groups so that the average value of the group matched (or was as close as possible to) the average value of all selected animals. The final average value of the measurements of each group was as close as possible to the final average value of the other groups.
After the inoculation of tumor cells, routine monitoring included the growth of the tumor and the impact of the treatment on the normal behavior of the animals. Specific content included the activity of the experimental animals, food and water intake, weight gain or loss, and any abnormalities in their eyes, fur, and other conditions. Any clinical symptoms observed during the experiment were recorded in the original data. After the start of administration, the weight of the mice and the size of the tumor were measured twice a week. […] The original data was directly imported into the software after being measured by a balance and caliper, and any changes in the data were recorded in this software. […]
All experimental results were expressed as the mean tumor volume±SEM (standard error of the mean). […] All data were analyzed using SPSS 18.0. […]

`Cn1cc(-c2cnc(CNc3nccn4c(-c5cc(F)cc(F)c5)cnc34)cn2)ccc1=O` [Compound 2] was tested, and the IC50 [1] was 0.23 nM, the IC50 (Capan-2 cells) was 6.07 nM and the T/C % ([2]; 5 mg/Kg, 37 days) was 12.97%. The TGI % ([2]; 5 mg/Kg, 37 days) was 94.6%, the T/C % ([2]; 10 mg/Kg) was 10.89% and the TGI % ([2]; 10 mg/Kg) was 96.8%.
